Experimental data reported in patent US9302999B2, “Substituted triazoles as herbicides” (E. I. DU PONT DE NEMOURS AND COMPANY, priority 2012, dated 2016).

Tests used:
Assay type in all cases: in vivo
Oilseed Rape = assay: Test C preemergence: oilseed rape; conditions: scale of 0 to 100, 0 is no effect, 100 is complete control
Excerpt: Seeds of plant species selected from blackgrass (Alopecurus myosuroides), bromegrass, downy (downy bromegrass, Bromus tectorum), foxtail, green (green foxtail, Setaria viridis), ryegrass, Italian (Italian ryegrass, Lolium multiflorum), winter wheat (Triticum aestivum), wild oat (Avena fatua), galium (catchweed bedstraw, Galium aparine), bermudagrass (Cynodon dactylon), surinam grass (Brachiaria decumbens), cocklebur (common cocklebur, Xanthium strumarium), corn (Zea mays), large crabgrass (Digitaria sanguinalis), woolly cupgrass (Eriochloa villosa), foxtail, giant (giant foxtail, Setaria faberii), goosegrass (Eleusine indica), johnsongrass (Sorghum halepense), kochia (Kochia scoparia), lambsquarters (Chenopodium album), morningglory (Ipomoea coccinea), nightshade (eastern black nightshade, Solanum ptycanthum), nutsedge, yellow (yellow nutsedge, Cyperus esculentus), pigweed (Amaranthus retroflexus), ragweed (common ragweed, Ambrosia elation), soybean (Glycine max), common (oilseed) sunflower (Helianthus annuus), Russian thistle (Salsola kali) and velvetleaf (Abutilon theophrasti) were planted into a blend of loam soil and sand and treated preemergence with test chemicals formulated in a non-phytotoxic solvent mixture which included a surfactant.
(§1) Treated plants and controls were maintained in a greenhouse for 13 to 15 days, after which time all species were compared to controls and visually evaluated. Plant response ratings, summarized in Table C, are based on a scale of 0 to 100 where 0 is no effect and 100 is complete control. A dash (-) response means no test result.

soybean (Glycine max) = assay: Test E pre-/postemergence: soybean; conditions: Preemergence, scale 0 to 100
Excerpt: (§2) Seeds of plant species selected from corn (Zea mays), soybean (Glycine max), velvetleaf (Abutilon theophrasti), lambsquarters (Chenopodium album), poinsettia, wild (wild poinsettia, Euphorbia heterophylla), pigweed, palmer (palmer pigweed, Amaranthus palmeri), waterhemp (common waterhemp, Amaranthus rudis), smartweed (ladysthumb smartweed, Polygonum persicaria), surinam grass (Brachiaria decumbens), crabgrass, large (large crabgrass, Digitaria sanguinalis), crabgrass, Brazil (Brazilian crabgrass, Digitaria horizontalis), panicum, fall (fall panicum, Panicum dichotomiflorum), foxtail, giant (giant foxtail, Setaria faberii), foxtail, green (green foxtail, Setaria viridis), goosegrass (Eleusine indica), johnsongrass (Sorghum halepense), ragweed (common ragweed, Ambrosia elation), barnyardgrass (Echinochloa crus-galli), sandbur (southern sandbur, Cenchrus echinatus), arrowleaf sida (Sida rhombifolia), ryegrass, Italian (Italian ryegrass, Lolium multiflorum), dayflower, (VA) (Virginia dayflower, Commelina virginica), field bindweed (Convolvulus arvensis), cocklebur (common cocklebur, Xanthium strumarium), morningglory (Ipomoea coccinea), nightshade (eastern black nightshade, Solanum ptycanthum), kochia (Kochia scoparia), nutsedge, yellow (yellow nutsedge, Cyperus esculentus) and beggarticks (hairy beggarticks, Bidens pilosa) were planted into a silt loam soil and treated preemergence with test chemicals formulated in a non-phytotoxic solvent mixture which included a surfactant. At the same time, plants selected from these crop and weed species were planted in pots containing a growing medium comprising spaghnum peat moss, vermiculite, wetting agent and starter nutrients and treated with postemergence applications of some of the test chemicals formulated in the same manner. Plants ranged in height from 2 to 18 cm for postemergence treatments (1- to 4-leaf stage).
as §1, with “14” for “13”, “21” for “15”, “E,” for “C,”

[1] = test system: sandbur (southern sandbur, Cenchrus echinatus); assay: Test E pre-/postemergence: sandbur; conditions: Preemergence, scale 0 to 100
Excerpt: as §2
as §1, with “14” for “13”, “21” for “15”, “E,” for “C,”

[2] = test system: arrowleaf sida (Sida rhombifolia); assay: Test E pre-/postemergence: arrowleaf sida; conditions: Preemergence, scale 0 to 100
Excerpt: as §2
as §1, with “14” for “13”, “21” for “15”, “E,” for “C,”

[3] = test system: field bindweed (Convolvulus arvensis); assay: Test E pre-/postemergence: field bindweed; conditions: Preemergence, scale 0 to 100
Excerpt: as §2
as §1, with “14” for “13”, “21” for “15”, “E,” for “C,”

[4] = test system: nutsedge, yellow (yellow nutsedge, Cyperus esculentus); assay: Test E pre-/postemergence: nutsedge, yellow; conditions: Preemergence, scale 0 to 100
Excerpt: as §2
as §1, with “14” for “13”, “21” for “15”, “E,” for “C,”

[5] = test system: poinsettia, wild (wild poinsettia, Euphorbia heterophylla); assay: Test F pre-/postemergence: poinsettia, wild
Excerpt: (§3) Seeds of plant species selected from corn (Zea mays), soybean (Glycine max), velvetleaf (Abutilon theophrasti), lambsquarters (Chenopodium album), poinsettia, wild (wild poinsettia, Euphorbia heterophylla), pigweed, palmer (palmer pigweed, Amaranthus palmeri), waterhemp (common waterhemp, Amaranthus rudis), surinam grass (Brachiaria decumbens), crabgrass, Brazil (Brazilian crabgrass, Digitaria horizontalis), panicum, fall (fall panicum Panicum dichotomiflorum), crabgrass, large (large crabgrass, Digitaria sanguinalis), foxtail, giant (giant foxtail, Setaria faberii), foxtail, green (green foxtail Setaria viridis), goosegrass (Eleusine indica), ragweed (common ragweed, Ambrosia elatior), barnyardgrass (Echinochloa crus-galli), sandbur (southern sandbur, Cenchrus echinatus), arrowleaf sida (Sida rhombifolia), ryegrass, Italian (Italian ryegrass, Lolium multiflorum), dayflower, VA (Virginia (VA) dayflower, Commelina virginica), field bindweed (Convolvulus arvensis), cocklebur (common cocklebur, Xanthium strumarium), morningglory (Ipomoea coccinea), nightshade (eastern black nightshade, Solanum ptycanthum), kochia (Kochia scoparia), nutsedge, yellow (yellow nutsedge, Cyperus esculentus), johnsongrass (Sorghum halepense), smartweed (ladysthumb smartweed, Polygonum persicaria), and beggarticks (hairy beggarticks, Bidens pilosa), were planted into a silt loam soil and treated preemergence with test chemicals formulated in a non-phytotoxic solvent mixture which included a surfactant. At the same time, plants selected from these crop and weed species and also pigweed (Amaranthus retroflexus), waterhemp_RES1 (ALS/Triazine resistant common waterhemp, Amaranthus rudis) and waterhemp_RES2 (ALS/HPPD resistant common waterhemp, Amaranthus rudis) were planted in pots containing a planting medium comprising spaghnum peat moss, vermiculite, wetting agent and starter nutrients treated with postemergence applications of some of the test chemicals formulated in the same manner. Plants ranged in height from 2 to 18 cm for postemergence treatments (1- to 4-leaf stage).
as §1, with “14” for “13”, “21” for “15”, “E,” for “C,”

[6] = test system: nightshade (eastern black nightshade, Solanum ptycanthum); assay: Test F pre-/postemergence: nightshade; conditions: Preemergence
Excerpt: as §3
as §1, with “14” for “13”, “21” for “15”, “E,” for “C,”

How did the “Plant response rating, Oilseed Rape” value (Oilseed Rape; 62 g ai/ha) turn out when CCOc1nn(-c2ccc(Br)cc2)nc1Cc1ccnc(C(F)(F)F)c1 [Compound 189] was run?
The value was 70.

Which “Plant response rating: Soybean” value (soybean (Glycine max); 8 g ai/ha) does the source give for Cc1nn(-c2ccc(F)cc2)nc1Cc1ccnc(C(F)(F)F)c1 [Compound 16, 4-[[2-(4-fluorophenyl)-5-methyl-2H-1,2,3-triazol-4-yl]methyl]-2-(trifluoromethyl)pyridine] here?
Its value is 0.

And the “Plant response rating: Soybean” value (soybean (Glycine max); 16 g ai/ha)?
Its value is 0.

And the “Plant response rating: Soybean” value (soybean (Glycine max); 31 g ai/ha)?
Its value is 0.

And the “Plant response rating: Soybean” value (soybean (Glycine max); 62 g ai/ha)?
The value was 0.

And the “Plant response rating: Soybean” value (soybean (Glycine max); 125 g ai/ha)?
The value was 20.

And the “Plant response rating: Sandbur” value ([1]; 8 g ai/ha)?
Its value is 0.

And the “Plant response rating: Sandbur” value ([1]; 16 g ai/ha)?
The value was 0.

And the “Plant response rating: Sandbur” value ([1]; 31 g ai/ha)?
The value was 10.

And the “Plant response rating: Sandbur” value ([1]; 62 g ai/ha)?
Its value is 50.

And the “Plant response rating: Sandbur” value ([1]; 125 g ai/ha)?
The value was 60.

What about the “Plant response rating: Arrowleaf Sida” value ([2]; 8 g ai/ha) of the same molecule?
Its value is 0.

What about the “Plant response rating: Arrowleaf Sida” value ([2]; 16 g ai/ha) of the same molecule?
Its value is 0.

What about the “Plant response rating: Arrowleaf Sida” value ([2]; 31 g ai/ha) of the same molecule?
The value was 0.

And the “Plant response rating: Arrowleaf Sida” value ([2]; 62 g ai/ha)?
Its value is 0.

And the “Plant response rating: Arrowleaf Sida” value ([2]; 125 g ai/ha)?
Its value is 35.

And the “Plant response rating: Field Bindweed” value ([3]; 8 g ai/ha)?
The value was 0.

What about the “Plant response rating: Field Bindweed” value ([3]; 16 g ai/ha) of the same molecule?
Its value is 0.

What about the “Plant response rating: Field Bindweed” value ([3]; 31 g ai/ha) of the same molecule?
Its value is 0.

What about the “Plant response rating: Field Bindweed” value ([3]; 62 g ai/ha) of the same molecule?
Its value is 20.

What about the “Plant response rating: Field Bindweed” value ([3]; 125 g ai/ha) of the same molecule?
The value was 50.

What about the “Plant response rating: Nutsedge, Yellow” value ([4]; 8 g ai/ha) of the same molecule?
Its value is 0.

And the “Plant response rating: Nutsedge, Yellow” value ([4]; 16 g ai/ha)?
The value was 0.

And the “Plant response rating: Nutsedge, Yellow” value ([4]; 31 g ai/ha)?
The value was 0.

And the “Plant response rating: Nutsedge, Yellow” value ([4]; 62 g ai/ha)?
The value was 20.

What about the “Plant response rating: Nutsedge, Yellow” value ([4]; 125 g ai/ha) of the same molecule?
Its value is 20.

How did the “Plant response rating, Oilseed Rape” value (Oilseed Rape; 62 g ai/ha) turn out when CCc1nn(-c2ccc(F)cc2)nc1Oc1ccnc(C(F)(F)F)c1 [Compound 166] was run?
The value was 50.

Which “Plant response rating, Poinsettia, Wild” value ([5]; Postemergence, 4 g ai/ha, scale 0 to 100) does the source give for Cc1nn(-c2ccc(C(F)(F)F)c(F)c2)nc1Cc1ccnc(C(F)(F)F)c1 [Compound 162] here?
The value was 15.

And the “Plant response rating, Poinsettia, Wild” value ([5]; Postemergence, 8 g ai/ha, scale 0 to 100)?
The value was 30.

And the “Plant response rating, Poinsettia, Wild” value ([5]; Postemergence, 16 g ai/ha, scale 0 to 100)?
Its value is 60.

What about the “Plant response rating, Poinsettia, Wild” value ([5]; Postemergence, 31 g ai/ha, scale 0 to 100) of the same molecule?
The value was 75.

What about the “Plant response rating, Poinsettia, Wild” value ([5]; Postemergence, 62 g ai/ha, scale 0 to 100) of the same molecule?
The value was 80.

And the “Plant response rating, Poinsettia, Wild” value ([5]; Preemergence, 4 g ai/ha, scale 0 to 100, 0 no effect, 100 complete control)?
Its value is 0.

And the “Plant response rating, Poinsettia, Wild” value ([5]; Preemergence, 8 g ai/ha, scale 0 to 100, 0 no effect, 100 complete control)?
The value was 0.

And the “Plant response rating, Poinsettia, Wild” value ([5]; Preemergence, 16 g ai/ha, scale 0 to 100 (0 no effect, 100 complete control))?
The value was 0.

And the “Plant response rating, Poinsettia, Wild” value ([5]; Preemergence, 31 g ai/ha, scale 0 to 100 (0 no effect, 100 complete control))?
Its value is 10.

What about the “Plant response rating, Nightshade” value ([6]; 4 g ai/ha, scale 0 to 100, 0 no effect, 100 complete control) of the same molecule?
Its value is 0.

What about the “Plant response rating, Nightshade” value ([6]; 8 g ai/ha, scale 0 to 100, 0 no effect, 100 complete control) of the same molecule?
The value was 0.

What about the “Plant response rating, Nightshade” value ([6]; 16 g ai/ha, scale 0 to 100 (0 no effect, 100 complete control)) of the same molecule?
Its value is 5.

What about the “Plant response rating, Oilseed Rape” value (Oilseed Rape; 31 g ai/ha) of the same molecule?
The value was 80.

What about the “Plant response rating, Oilseed Rape” value (Oilseed Rape; 62 g ai/ha) of the same molecule?
The value was 100.
